Numbers after ± are expanded uncertainties.
What was measured:
[1] = xn = mol fraction of the nth substance listed; conditions: 298.15 K, 101.33 kPa, Liquid, Vibrating tube method
[2] = Liquid; for mass density: 298.15 K, 101.33 kPa, Vibrating tube method; for Normal boiling temperature: Ebulliometric method (Recirculating still)
[3] = refractive index (Na D-line) (dimensionless); conditions: 298.15 K; 101.33 kPa; Liquid; Standard Abbe refractometry
[4] = excess molar enthalpy (molar enthalpy of mixing); xn = mol fraction of the nth substance listed; conditions: 298.15 K, 101.33 kPa, Liquid, Calvet calorimetry

CCC(=O)OC [methyl propanoate] + CCCCCCC
[1]
Conditions | mass density [kg/m3]
x1 = 0.064 | 687.65 ± 0.62
x1 = 0.1117 | 694.35 ± 0.64
x1 = 0.1561 | 700.97 ± 0.69
x1 = 0.2628 | 718.15 ± 0.74
x1 = 0.365 | 736.5 ± 0.8
x1 = 0.4343 | 750.1 ± 0.88
x1 = 0.5113 | 766.46 ± 0.94
x1 = 0.5683 | 779.43 ± 1
x1 = 0.6351 | 795.65 ± 1.1
x1 = 0.7017 | 812.9 ± 1.1
x1 = 0.7543 | 827.61 ± 1.2
x1 = 0.8136 | 845.12 ± 1.3
x1 = 0.8664 | 861.73 ± 1.4
x1 = 0.903 | 873.85 ± 1.4
x1 = 0.9689 | 896.98 ± 1.5

COC=O [methyl methanoate]
Conditions | Normal boiling temperature [°C] | mass density [kg/m3] | refractive index
[2] | 31.64 ± 0.2 | 966.18 ± 0.49 | –
[3] | – | – | 1.3412 ± 0.0008

CCCC(=O)OC [methyl butanoate] + CCCCCCC
[1]
Conditions | mass density [kg/m3]
x1 = 0.0337 | 684.36 ± 0.67
x1 = 0.0689 | 689.75 ± 0.68
x1 = 0.102 | 694.93 ± 0.7
x1 = 0.1531 | 703.25 ± 0.73
x1 = 0.2487 | 719.6 ± 0.76
x1 = 0.3261 | 733.58 ± 0.8
x1 = 0.3824 | 744.29 ± 0.84
x1 = 0.4586 | 759.5 ± 0.88
x1 = 0.5333 | 775.25 ± 0.93
x1 = 0.6085 | 791.88 ± 0.97
x1 = 0.6618 | 804.18 ± 1
x1 = 0.7161 | 817.1 ± 1.1
x1 = 0.7869 | 834.67 ± 1.1
x1 = 0.8394 | 848.24 ± 1.1
x1 = 0.8882 | 861.22 ± 1.2
x1 = 0.9255 | 871.41 ± 1.2

CCCCCCC [heptane]
Conditions | Normal boiling temperature [°C] | mass density [kg/m3] | refractive index
[2] | 98.20 ± 0.49 | 679.3 ± 0.45 | –
[3] | – | – | 1.3853 ± 0.0007

COC=O [methyl methanoate] + CCCCCCC
Conditions | excess molar enthalpy [kcal/mol] | mass density [kg/m3]
[1], x1 = 0.042 | – | 682.76 ± 0.3
[1], x1 = 0.1206 | – | 689.96 ± 0.33
[1], x1 = 0.2235 | – | 702.15 ± 0.38
[1], x1 = 0.3614 | – | 723.34 ± 0.44
[1], x1 = 0.4593 | – | 741.73 ± 0.51
[1], x1 = 0.5364 | – | 759.27 ± 0.59
[1], x1 = 0.6079 | – | 778.2 ± 0.66
[1], x1 = 0.6651 | – | 795.64 ± 0.78
[1], x1 = 0.7799 | – | 837.8 ± 0.87
[1], x1 = 0.8321 | – | 861.36 ± 1
[1], x1 = 0.8729 | – | 882.18 ± 1.2
[1], x1 = 0.911 | – | 904.19 ± 1.3
[1], x1 = 0.946 | – | 926.26 ± 1.4
[1], x1 = 0.9736 | – | 945.92 ± 1.6
[1], x1 = 0.9935 | – | 961.3 ± 1.6
[4], x1 = 0.0673 | 0.123 ± 0.00382 | –
[4], x1 = 0.1535 | 0.268 ± 0.00454 | –
[4], x1 = 0.2499 | 0.403 ± 0.0055 | –
[4], x1 = 0.3332 | 0.484 ± 0.00621 | –
[4], x1 = 0.4008 | 0.52 ± 0.00645 | –
[4], x1 = 0.4555 | 0.538 ± 0.00669 | –
[4], x1 = 0.5004 | 0.546 ± 0.00669 | –
[4], x1 = 0.5354 | 0.546 ± 0.00669 | –
[4], x1 = 0.5709 | 0.545 ± 0.00669 | –
[4], x1 = 0.6389 | 0.521 ± 0.00645 | –
[4], x1 = 0.6745 | 0.506 ± 0.00645 | –
[4], x1 = 0.7144 | 0.479 ± 0.00621 | –
[4], x1 = 0.7527 | 0.452 ± 0.00598 | –
[4], x1 = 0.794 | 0.412 ± 0.00574 | –
[4], x1 = 0.8313 | 0.363 ± 0.00526 | –
[4], x1 = 0.8721 | 0.303 ± 0.00502 | –
[4], x1 = 0.9068 | 0.234 ± 0.00502 | –
[4], x1 = 0.9426 | 0.157 ± 0.00502 | –
[4], x1 = 0.973 | 0.0807 ± 0.00502 | –

COC(C)=O [methyl ethanoate] + CCCCCCC
[1]
Conditions | mass density [kg/m3]
x1 = 0.0676 | 686.77 ± 0.36
x1 = 0.1019 | 690.81 ± 0.37
x1 = 0.1594 | 698.12 ± 0.39
x1 = 0.2497 | 710.82 ± 0.42
x1 = 0.3137 | 721.1 ± 0.46
x1 = 0.4011 | 736.76 ± 0.49
x1 = 0.4829 | 753.42 ± 0.54
x1 = 0.5498 | 768.76 ± 0.59
x1 = 0.6215 | 786.97 ± 0.64
x1 = 0.6765 | 802.41 ± 0.69
x1 = 0.7204 | 815.61 ± 0.74
x1 = 0.7841 | 836.35 ± 0.79
x1 = 0.8342 | 854.72 ± 0.86
x1 = 0.8837 | 873.99 ± 0.92
x1 = 0.9248 | 891.52 ± 0.99
x1 = 0.9632 | 908.98 ± 1

CCCCC(=O)OC [methyl pentanoate]
Conditions | mass density [kg/m3] | refractive index
[2] | 884.58 ± 0.46 | –
[3] | – | 1.3947 ± 0.0008

[2]
Conditions | vapor or sublimation pressure [kPa]
364.75 K | 32.01 ± 0.11
365.85 K | 33.33 ± 0.11
366.98 K | 34.67 ± 0.12
368.03 K | 36 ± 0.12
369.05 K | 37.33 ± 0.12
370.1 K | 38.66 ± 0.12
371.03 K | 40.01 ± 0.12
371.97 K | 41.33 ± 0.12
372.92 K | 42.66 ± 0.13
373.81 K | 43.99 ± 0.13
374.7 K | 45.33 ± 0.13
375.56 K | 46.64 ± 0.13
376.4 K | 48.01 ± 0.13
377.18 K | 49.33 ± 0.13
378.01 K | 50.64 ± 0.13
378.82 K | 51.98 ± 0.14
379.59 K | 53.33 ± 0.14
380.33 K | 54.67 ± 0.14
381.1 K | 56 ± 0.14
381.82 K | 57.33 ± 0.14
382.51 K | 58.67 ± 0.14
383.29 K | 59.99 ± 0.15
383.95 K | 61.33 ± 0.15
384.62 K | 62.68 ± 0.15
385.25 K | 63.99 ± 0.15
385.95 K | 65.33 ± 0.15
386.57 K | 66.66 ± 0.16
387.18 K | 67.99 ± 0.16
387.84 K | 69.32 ± 0.16
388.44 K | 70.66 ± 0.16
389.08 K | 71.99 ± 0.16
389.65 K | 73.33 ± 0.16
390.24 K | 74.65 ± 0.16
390.82 K | 76 ± 0.17
391.39 K | 77.3 ± 0.17
391.94 K | 78.66 ± 0.17
392.5 K | 79.99 ± 0.17
393.04 K | 81.33 ± 0.17
393.61 K | 82.66 ± 0.17
394.12 K | 83.98 ± 0.18
394.65 K | 85.33 ± 0.18
395.16 K | 86.66 ± 0.18
395.69 K | 88 ± 0.18
396.2 K | 89.33 ± 0.18
396.7 K | 90.67 ± 0.19
397.18 K | 91.98 ± 0.19
397.67 K | 93.35 ± 0.19
398.2 K | 94.67 ± 0.19
398.65 K | 95.99 ± 0.19
399.15 K | 97.32 ± 0.19
399.59 K | 98.66 ± 0.2
400.07 K | 99.99 ± 0.2
400.54 K | 101.32 ± 0.2
401 K | 102.66 ± 0.2
401.45 K | 104.01 ± 0.2
401.91 K | 105.33 ± 0.2
402.3 K | 106.66 ± 0.21
402.75 K | 107.99 ± 0.21
403.2 K | 109.32 ± 0.21
403.62 K | 110.58 ± 0.21
404.06 K | 111.98 ± 0.21
404.45 K | 113.3 ± 0.22
404.88 K | 114.66 ± 0.22
405.31 K | 115.99 ± 0.22
405.71 K | 117.32 ± 0.22
406.12 K | 118.69 ± 0.22
406.52 K | 119.98 ± 0.22
406.91 K | 121.36 ± 0.23
407.3 K | 122.64 ± 0.23
407.7 K | 124 ± 0.23
408.08 K | 125.32 ± 0.23
408.49 K | 126.67 ± 0.23
408.85 K | 127.99 ± 0.23
409.23 K | 129.32 ± 0.23
409.62 K | 130.64 ± 0.24
409.98 K | 132.01 ± 0.24
410.35 K | 133.34 ± 0.24
410.71 K | 134.64 ± 0.24
411.07 K | 135.99 ± 0.24
411.44 K | 137.33 ± 0.25
411.8 K | 138.63 ± 0.25
412.15 K | 139.99 ± 0.25
412.49 K | 141.33 ± 0.25
412.85 K | 142.67 ± 0.25
413.21 K | 143.99 ± 0.25
413.55 K | 145.32 ± 0.26
413.89 K | 146.65 ± 0.26
414.22 K | 148 ± 0.26
414.55 K | 149.34 ± 0.26
414.91 K | 150.65 ± 0.26
415.23 K | 151.99 ± 0.27
415.57 K | 153.32 ± 0.27
415.87 K | 154.61 ± 0.27
416.21 K | 155.97 ± 0.27
416.55 K | 157.29 ± 0.27
416.87 K | 158.66 ± 0.27
417.18 K | 159.97 ± 0.28

CCCC(=O)OC [methyl butanoate]
Conditions | Normal boiling temperature [°C] | mass density [kg/m3] | refractive index
[2] | 102.38 ± 0.2 | 892.52 ± 0.46 | –
[3] | – | – | 1.3852 ± 0.0008

CCCCC(=O)OC [methyl pentanoate] + CCCCCCC
[1]
Conditions | mass density [kg/m3]
x1 = 0.0172 | 682.12 ± 0.74
x1 = 0.0613 | 689.72 ± 0.76
x1 = 0.1404 | 703.9 ± 0.77
x1 = 0.2074 | 716.09 ± 0.8
x1 = 0.2867 | 731.09 ± 0.82
x1 = 0.3552 | 744.33 ± 0.84
x1 = 0.4135 | 755.77 ± 0.86
x1 = 0.4931 | 771.88 ± 0.88
x1 = 0.5619 | 786.14 ± 0.91
x1 = 0.631 | 800.74 ± 0.93
x1 = 0.7038 | 816.52 ± 0.95
x1 = 0.7607 | 828.99 ± 0.98
x1 = 0.8392 | 846.84 ± 1
x1 = 0.9149 | 864.2 ± 1
x1 = 0.9531 | 873.23 ± 1.1
x1 = 0.9836 | 880.67 ± 1.1

COC(C)=O [methyl ethanoate]
Conditions | Normal boiling temperature [°C] | mass density [kg/m3] | refractive index
[2] | 56.70 ± 0.2 | 927.14 ± 0.47 | –
[3] | – | – | 1.3589 ± 0.0008

CCC(=O)OC [methyl propanoate]
Conditions | Normal boiling temperature [°C] | mass density [kg/m3] | refractive index
[2] | 78.50 ± 0.2 | 908.59 ± 0.47 | –
[3] | – | – | 1.3745 ± 0.0008

Source: the NIST ThermoML archive (doi:10.1021/je030117d)
